Earlier results, collected in patent US10264790B2, “Use of certain herbicide combinations based on iodosulfuron in teff plants” (BAYER CROPSCIENCE AKTIENGESELLSCHAFT, priority 2016, dated 2019).
Read-outs that look alike come from different tables or passages of the source.

Tests used:
teff (Eragrostis tef) = conditions: for injury on teff: in vivo; for yield reductions: field studies Kansas, teff
[1] = test system: Phalaris paradoxa and Setaria pallidefusca; conditions: pot experiments; applied pre-emergence (diclofop-methyl only with a safener)
teff [2] = conditions: for selectivity in teff: with or without the safener
teff [3] = conditions: for levels of weed control, teff safety and teff yields: postemergence applications; for injury to teff: applied postemergence
[4] = postemergence treatments, field studies Oregon 2009

O=C(O)COc1ccc(Cl)cc1Cl [2,4-D, (2,4-dichlorophenoxy)acetic acid]
injury on teff (teff (Eragrostis tef)): less than 5%

COC(=O)C(C)Oc1ccc(Oc2ccc(Cl)cc2Cl)cc1 (centres unmarked) [Diclofop-methyl]
control of Phalaris paradoxa and Setaria pallidefusca [1]: controlled both weeds
safety / tolerance on teff (teff [2]; pot experiments, applied pre-emergence (diclofop-methyl only with a safener)): tolerated by teff

CCc1cccc(CC)c1N(COC)C(=O)CCl [alachlor]
selectivity in teff (teff [2]; pot experiments): failed to show selectivity

COc1nc(C)nc(NC(=O)NS(=O)(=O)c2ccccc2Cl)n1 [chlorsulfuron]
control of Phalaris paradoxa and Setaria pallidefusca [1]: controlled both weed species
teff injury (in words) (teff [3]; in vivo): little or no teff injury
levels of weed control, teff safety and teff yields (teff [3]; field studies Oregon 2009): highest levels
safety / tolerance on teff (teff [2]; in vivo): safe on teff

O=C(O)c1nc(Cl)ccc1Cl [clopyralid]
teff injury (in words) (teff [3]; [4]): little or no teff injury

COc1nn(C(=O)NS(=O)(=O)c2ccccc2OC(F)(F)F)c(=O)n1C [flucarbazone]
teff injury (in words) (teff [3]; [4]): little or no teff injury

Nc1c(Cl)c(F)nc(OCC(=O)O)c1Cl [fluroxypyr]
teff injury (in words) (teff [3]; in vivo): little or no teff injury

COc1cc(OC)nc(NC(=O)NS(=O)(=O)c2c(C(=O)O)c(Cl)nn2C)n1 [halosulfuron]
injury on teff (teff (Eragrostis tef)): less than 5%

COc1cc(OC)nc(NC(=O)NS(=O)(=O)c2cc(C(=O)O)ccc2CNS(C)(=O)=O)n1 [mesosulfuron, 2-[(4,6-dimethoxypyrimidin-2-ylcarbamoyl)sulfamoyl]-α-methanesulfonamido-p-toluic acid]
injury to teff (teff [3]; field studies Oregon 2009): 10%

CS(=O)(=O)c1ccc(C(=O)C2C(=O)CCCC2=O)c([N+](=O)[O-])c1 [mesotrione]
yield reductions (teff (Eragrostis tef)): 30%
injury to teff (teff [3]; field studies Oregon 2009): 63%
injury to the teff (teff [3]; applied preemergence, field studies Oregon 2009): 100%

COc1ccc(NC(=O)N(C)C)cc1Cl [metoxuron]
selectivity in teff (teff [2]; pot experiments): failed to show selectivity

COc1nc(C)nc(=NC(=O)NS(=O)(=O)c2ccccc2C(=O)O)[nH]1 [metsulfuron]
levels of weed control, teff safety and teff yields (teff [3]; field studies Oregon 2009): highest levels
teff injury (in words) (teff [3]; [4]): little or no teff injury

COc1cc(OC)nc(NC(=O)NS(=O)(=O)c2ncccc2C(=O)N(C)C)n1 [nicosulfuron]
injury to teff (teff [3]; field studies Oregon 2009): 20%

CCC(CC)Nc1c([N+](=O)[O-])cc(C)c(C)c1[N+](=O)[O-] [pendimethalin]
selectivity in teff (teff [2]; pot experiments): failed to show selectivity

CCc1cc(C)cc(CC)c1-c1c(OC(=O)C(C)(C)C)n2n(c1=O)CCOCC2 [pinoxaden]
injury to teff (teff [3]; field studies Oregon 2009): 70%

COc1nc(C)nc(NC(=O)NS(=O)(=O)c2ccccc2CCC(F)(F)F)n1 [prosulfuron]
injury on teff (teff (Eragrostis tef)): less than 5%

Cn1nc(-c2cc(OCC(=O)O)c(Cl)cc2F)c(Cl)c1OC(F)F [pyraflufen]
teff injury (in words) (teff [3]; [4]): little or no teff injury

CCC/C(=N\OCC)C1=C(O)CC(CC(C)SCC)CC1=O (centres unmarked) [sethoxydim]
yield reductions (teff (Eragrostis tef)): 50%

COc1nc(C)nc(N(C)C(=O)NS(=O)(=O)c2ccccc2C(=O)O)n1 [tribenuron]
teff injury (in words) (teff [3]; [4]): little or no teff injury
